Experimental data taken from US20240226066A1, “CARDIOPROTECTION BY AUTOPHAGY INDUCTION AND METABOLIC REPROGRAMMING” (UNIVERSITE PARIS-SACLAY, priority 2021, published 2024).
Where two headings read alike, the source gives them in different places.

Tests used:
[1] = system: A549 lung cancer cell line; experiment: Influence of hits on growth of A549 cancer cells (total LDH after lysis); format: cell-based; conditions: 48 h
Protocol: The cells were cultured for 6 h in the presence or absence of the hits, and then for 42 h. Finally, the cells were lysed with lysis buffer and the amount of LDH was measured to evaluate the total cell growth.
A colorimetric assay was used to measure lactate dehydrogenase (LDH), a cytosolic enzyme which is released during permeabilization of the plasma membrane (Promega G1780). The assay was performed using cell culture supernatants obtained from H9C2 or RNVC (rat neonatal ventricular myocyte) cells and lysis buffer (LB) was used as a positive control for total cell lysis. The LDH release was measured by absorbance reading at 490 nm (Infinite spectrofluorimeter, Tecan).
The effect of the compounds was then evaluated on primary rat neonatal ventricular cardiomyocytes (RNVCs) using the LDH test and propidium iodide staining. […] The absence of proliferative effects of the compounds was also evaluated on the A549 lung cancer cell line for 48 h (FIG. 2C).

[2] = system: RNVCs; experiment: Mitochondrial ROS production with MitoSOX fluorescent probe; format: cell-based, rat; conditions: 1 μM, 6 h
Protocol: FIG. 12: The RNVCs were treated with 0.1% DMSO, 3 μM rapamycin, 1 μM digitoxigenin, 1 μM digoxin, 1 μM minaprin, 1 μM VP331, 1 μM LOPA87, 10 μM SG6163F for 6 h, then the ROS production was stained with the MitoSOX fluorescent probe.
The RNVCs were treated with 0.01% DMSO, 3 μM rapamycin, […], 1 μM digoxin, 1 μM minaprine, 1 μM VP331, 1 μM LOPA87, 10 μM SG6163F in a serum-free cell culture medium for 6 hours. The contents (50 μg) of a MitoSOX™ mitochondrial superoxide indicator vial (ThermoFisher, M36008) were dissolved in 13 μl dimethyl sulfoxide (DMSO) to prepare a 5 mM MitoSOX™ reagent stock solution. Next, the 5 mM MitoSOX™ reagent stock solution in PBS was diluted to prepare a 5 μM working solution of MitoSOX™ reagent. After treatment, the cells were rinsed twice with hot PBS and then incubated with a MitoSOX reagent working solution for 10 minutes at 37° C. The cells were gently rinsed three times with hot PBS. Red fluorescence was detected with a Leica confocal microscope. Nuclear fluorescence was suppressed and mitochondrial fluorescence intensity was measured using ImageJ software.
ROSs are produced or accumulated as a by-product of mitochondrial activity metabolism. Thus, the ROSs may be a consequence of mitochondrial function or may reflect a defect in the mitochondrial antioxidant system.

[3] = system: H9C2 cells; experiment: Exogenous fatty acid oxidation (XF palmitate-BSA FAO substrate with mito stress test); format: cell-based, rat; conditions: fatty acids as substrate
Protocol: FIG. 8C: the oxidation of the exogenous fatty acids was measured simultaneously using the XF palmitate-BSA FAO substrate kit with the mito stress test on XF cells. Before starting the test, 30 μL of XF palmitate-BSA CAM or BSA control substrate were added to the appropriate wells.
The XFe96 extracellular flow analyzer (Seahorse Biosciences, North Billerica, MA, USA) was used to measure the bioenergetic function of H9C2 cardiomyocytes. The H9C2 cells were seeded at 20 000 cells per well in XF96 cell culture microplates; all the pretreatments were carried out with serum-free cell culture medium. The Agilent Seahorse XF glycolysis stress test was performed to measure glycolytic function in the H9C2 cells; the extracellular acidification rate (ECAR) was measured sequentially by 3 injections, 10 mM glucose, 2 μM oligomycin and 50 mM 2-deoxy-D-glucose (2-DG). The Agilent Seahorse XF Cell Mito stress test measured key parameters of mitochondrial function by directly measuring the oxygen consumption rate (OCR) of the H9C2 cells. […] The oxidation of the exogenous fatty acids was measured simultaneously using the XF palmitate-BSA FAO substrate kit with the mitochondrial stress test on XF cells. […]
(§1) Next, the energy metabolism was analyzed in real time using the Seahorse technology in H9C2 cells.

[4] = target: T1, hERG potassium channel (Homo sapiens, UniProt Q12809); experiment: hERG channel binding assay ([3H]dofetilide displacement); conditions: for inhibition at 10 µM: human, probe [3H]dofetilide
T1 construct: Eurofins
Protocol: The evaluation of the binding of the compounds to the human hERG potassium channel was carried out as described previously (Eurofins).
Since the blocking of the human potassium channel hERG channel may be responsible for cardiac fibrillation leading to cardiac arrest and death of the patient, the binding of the 3 molecules SG6163F, VP331 and LOPA87 to this receptor was evaluated.

[5] = system: RNVCs; experiment: Mitochondrial network and cell volume by confocal microscopy (Mitotracker, calcein-AM, IMARIS); format: cell-based, rat; conditions: for effect on the mitochondrial network / number of mitochondria: 1 and 10 μM, 6 h
Protocol: FIG. 6. Effects on mitochondrial dynamics by fluorescence microscopy The RNVCs were treated with 1 μM hits (FIG. 6A) and 10 μM hits (FIG. 6B) for 6 h and the mitochondrial network was stained with 200 nM of Mitotracker. The mitochondrial network and individual mitochondria were then analyzed using a Leica confocal microscope and IMARIS software. Data are presented as mean±SEM with single-factor ANOVA, and multiple Sidak comparisons. *, p<0.05, **, p<0.01, ***, p<0.001 with respect to DMSO.
FIG. 11: following the treatment of the RNVCs with the compounds as indicated, the cell volume was stained with 4 μM of calcein-AM. The cell volume was then analyzed using the IMARIS software.
Confocal microscopy. On day 0, 4×10^5 neonatal cardiomyocytes were plated overnight on laminin-coated 35 mm culture dishes (10 μg/ml). On day 1, the cells were treated with various compounds at 1 or 10 μM for 6 hours. The cells were incubated with Mitotracker Red 580 at 200 nM for 20 minutes at 37° C., then 4 μM of calcein (Calcein AM, Life Technologies, St Aubin, France) for 10 minutes at 37° C. The images were acquired with a Leica confocal microscope (SP5) (Mannheim, Germany). The mitochondrial network and the 3D model of cell volume were reconstructed using the IMARIS software (Bitplane Company, Zurich, Switzerland); therefore the cell volume, mitochondrial number and volume were analyzed.
Due to the importance of mitochondria and reactive oxygen species (ROS) levels in the fate of cardiomyocyte cells, the hypothesis that the compounds could impact the mitochondrial network was explored. Following treatment of the RNVCs with the compounds tested, the mitochondrial network was stained with 200 nM of Mitotracker and the cell volume with 4 μM of calcein-AM. Thus, the mitochondrial network and the individual mitochondria were then analyzed using the IMARIS software.

[6] = system: H9C2 cells; experiment: Seahorse XF Cell Mito stress test (OCR); format: cell-based, rat; conditions: glucose and pyruvate as substrates, 6 h
Protocol: FIG. 8B: the H9c2 cells were treated with the compounds for 6 h, then a mitochondrial respiration stress test was carried out.
The XFe96 extracellular flow analyzer (Seahorse Biosciences, North Billerica, MA, USA) was used to measure the bioenergetic function of H9C2 cardiomyocytes. The H9C2 cells were seeded at 20 000 cells per well in XF96 cell culture microplates; all the pretreatments were carried out with serum-free cell culture medium. The Agilent Seahorse XF glycolysis stress test was performed to measure glycolytic function in the H9C2 cells; the extracellular acidification rate (ECAR) was measured sequentially by 3 injections, 10 mM glucose, 2 μM oligomycin and 50 mM 2-deoxy-D-glucose (2-DG). The Agilent Seahorse XF Cell Mito stress test measured key parameters of mitochondrial function by directly measuring the oxygen consumption rate (OCR) of the H9C2 cells. The test used the built-in injection ports on XF sensor cartridges to add respiration modulators into the cell well during the test in order to reveal key parameters of mitochondrial function. Oligomycin at 2 μM was injected first after the baseline measurements. Then 1 μM of […] (FCCP) was injected. The third injection corresponds to 0.5 μM of antimycin A, to stop mitochondrial respiration. The oxidation of the exogenous fatty acids was measured simultaneously using the XF palmitate-BSA FAO substrate kit with the mitochondrial stress test on XF cells. The substrate-limited medium is DMEM with 0.5 mM glucose, 1 mM GlutaMAX, 0.5 mM carnitine and 1% fetal calf serum. Carnitine was added freshly on the day of the change of medium. The FAO test medium contains 111 mM NaCl, 4.7 mM KCl, 1.25 mM CaCl2, 2 mM MgSO4, 1.2 mM NaH2PO4, supplemented with 2.5 mM glucose, 0.5 mM carnitine and 5 mM HEPES on the day of the test, adjusted to pH 7.4 at 37° C. The H9C2 cells were seeded at 20 000 cells per well in XF96 cell culture microplates. […]
as §1

[7] = system: LC3II; experiment: LC3 I/II conversion by western blot in RNVCs; format: cell-based, rat; conditions: rapamycin positive control (3 μM)
Protocol: FIG. 4E: LC3-I/II protein levels in the RNVCs. Data are presented as mean±SEM with single-factor ANOVA, and multiple Sidak comparisons. *, p<0.05, **, p<0.01 with respect to DMSO.
The H9C2 cells and RNVCs were detached in LB containing: 50 mM Tris, 150 mM NaCl, 1 mM EDTA, 0.5% deoxycholate, 1% Triton X 100, 0.1% SDS (pH 8.0). The cells were collected and placed on ice for 30 minutes. The cells were then centrifuged at 2000 g for 20 minutes at for 4° C. The supernatant was transferred to a new tube and stored on ice. The protein concentration was determined by BCA assay. The protein samples were diluted with sample buffer (2× Laemmli, Sigma), mixed, and heated for 5 minutes at 95° C. […] The images were recorded with a gel imaging system (Bio Rad). […]
Next, the hypothesis that the compounds could protect cardiac cells by activating autophagy, a catabolic process conserved in evolution that involves the degradation of damaged cytoplasmic components, was formulated. […] Then, the cells were treated with the hits and with H2O2 for 2 hours and their survival was analyzed 4 hours later by measuring LDH release (FIGS. 4B, 4C). […] In order to confirm the induction of autophagy by another approach, the RNVCs were transfected with a GFP-LC3 plasmid and the formation of the autophagosome was monitored 24 hours later. […]

T1 sequence (Q12809 whole entry): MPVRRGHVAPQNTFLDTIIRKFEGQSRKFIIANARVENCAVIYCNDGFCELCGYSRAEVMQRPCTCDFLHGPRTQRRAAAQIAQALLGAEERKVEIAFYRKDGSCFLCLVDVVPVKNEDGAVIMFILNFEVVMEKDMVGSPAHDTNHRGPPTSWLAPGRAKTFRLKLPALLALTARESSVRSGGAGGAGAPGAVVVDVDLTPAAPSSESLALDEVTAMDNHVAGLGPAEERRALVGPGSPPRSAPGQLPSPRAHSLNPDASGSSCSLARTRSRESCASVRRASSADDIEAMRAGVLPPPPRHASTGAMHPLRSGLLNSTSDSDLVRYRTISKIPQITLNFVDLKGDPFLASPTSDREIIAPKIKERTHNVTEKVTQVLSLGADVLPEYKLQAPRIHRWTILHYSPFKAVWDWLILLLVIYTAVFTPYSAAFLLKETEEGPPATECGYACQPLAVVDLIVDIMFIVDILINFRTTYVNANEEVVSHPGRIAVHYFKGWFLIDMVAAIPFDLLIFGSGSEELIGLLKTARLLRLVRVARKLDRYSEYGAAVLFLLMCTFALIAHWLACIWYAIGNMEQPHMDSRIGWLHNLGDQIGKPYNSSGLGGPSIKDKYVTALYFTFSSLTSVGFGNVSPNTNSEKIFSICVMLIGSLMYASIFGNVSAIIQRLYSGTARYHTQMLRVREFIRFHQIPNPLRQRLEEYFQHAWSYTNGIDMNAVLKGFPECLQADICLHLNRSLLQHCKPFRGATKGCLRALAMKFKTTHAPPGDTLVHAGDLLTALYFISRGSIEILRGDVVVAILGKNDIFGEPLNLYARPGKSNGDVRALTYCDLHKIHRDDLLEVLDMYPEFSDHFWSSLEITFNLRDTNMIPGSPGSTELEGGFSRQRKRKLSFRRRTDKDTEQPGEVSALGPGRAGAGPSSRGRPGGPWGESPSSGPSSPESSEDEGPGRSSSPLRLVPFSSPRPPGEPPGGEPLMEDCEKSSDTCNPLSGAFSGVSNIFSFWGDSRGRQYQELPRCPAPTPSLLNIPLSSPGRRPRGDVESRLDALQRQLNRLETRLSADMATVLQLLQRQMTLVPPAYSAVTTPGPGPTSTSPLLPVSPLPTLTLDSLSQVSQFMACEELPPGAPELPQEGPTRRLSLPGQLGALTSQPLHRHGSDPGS

COc1ccc(C)cc1/C=N/[C@@H]1C[C@@H]2C[C@H]([C@H]1C)C2(C)C [VP331]
effect on A549 cell growth [1]: no proliferative effect
local level of mitochondrial superoxide anion [2]: induced an elevation
oxidative phosphorylation [3]: improved oxidative phosphorylation
inhibition at 10 µM ([4]; inhibition of tritiated dofetilide binding, only values >50% considered effective, read-out: % inhibit 1st assay): -4%
inhibition at 10 µM ([4]; inhibition of tritiated dofetilide binding, only values >50% considered effective, read-out: % inhibit 2nd assay): 5.4%
inhibition at 10 µM ([4]; mean of two independent measurements, read-out: % inhibit Mean): 0.7%
binding to the hERG channel ([4]; inhibition of specific binding of [3H]dofetilide in vitro): negligible
effect on the mitochondrial network [5]: no effect
number of mitochondria [5]: no effect

Cc1cc(-c2ccccc2)nnc1NCCN1CCOCC1 [minaprine]
effect on A549 cell growth [1]: significantly reduced cell growth and induced cell death
local level of mitochondrial superoxide anion [2]: induced an elevation
ATP production by oxidative phosphorylation (OXPHOS) [6]: improved ATP production by oxidative phosphorylation
mitochondrial mass ([5]; 10 μM): decreased the mitochondrial mass
effect on the mitochondrial network [5]: no effect
number of mitochondria [5]: no effect

CO[C@H]1C[C@@H]2CC[C@@H](C)[C@@](O)(O2)C(=O)C(=O)N2CCCC[C@H]2C(=O)O[C@H]([C@H](C)C[C@@H]2CC[C@@H](O)[C@H](OC)C2)CC(=O)[C@H](C)/C=C(\C)[C@@H](O)[C@@H](OC)C(=O)[C@H](C)C[C@H](C)/C=C/C=C/C=C/1C [rapamycin, reference compound]
increase in level of expression of LC3II [7]: > 1.4 fold
